According to patent US12692249B2, “WDR5 inhibitors and modulators” (Vanderbilt University, priority 2019, dated 2026):
pKi: −log10 of the molar value.

Assays:
WDR5 = WDR5 (Homo sapiens, UniProt P61964); experiment: TR-FRET competition binding assay, displacement of 10mer-Thr-FAM MLL peptide probe from His-tagged WDR5; settings: WDR5-His tag (residues 24-334) 2 nM; 10mer-Thr-FAM 150 nM; 60 min, room temperature; read-out: Ki for Inhibition of WDR5 by TR-FRET assay
Procedure: Time Resolved-Fluorescence Energy Transfer Competition Assay […] Excess 10mer-Thr-FAM probe was utilized with His-tagged WDR5 in conjunction with a commercial anti-His antibody containing a Terbium label. The LanthaScreenTM Elite Tb-anti-HIS Antibody from ThermoFisher Scientific was used for this purpose. […] The 10mer-Thr-FAM probe when bound to WDR5 will undergo a FRET interaction with the Tb-anti-HIS and emit at 520 nm. […] WDR[…] 10[…] used at 150 nM. […] A source plate is prepared using an Echo Liquid Handler, which distributes the compounds to the assay plate (white, flat-bottom; OptiPlate) in a 10-point, 5-fold dilution schemes with a top concentration of 5 μM, in a final volume of 20 μL. […] The final DMSO concentration in each well of the assay plate is 1% or lower. The plate is covered, shielded from light, and incubated for 60 minutes at room temperature with rocking. 10mer-Thr-FAM and Anti-His terbium antibody fluorescence is then measured on a Biotek Cytation 3 at excitation wavelength of 340 nm, and emission wavelengths of 495 nm and 520 nm. […] TR-FRET signal is plotted and IC50 and Ki values are calculated according to the formula of Wang Z. FEBS Lett (1996) 3, 245. Ki=[I]50/([L]50/Kd+[P]0/Kd+1) where [I]50 is the concentration of the free inhibitor at 50% inhibition, [L]50 is the concentration of the free labeled ligand at 50% inhibition, [P]0 is the concentration of the free protein at 0% inhibition, Kd represents the dissociation constant of the FITC-MLL or 10mer-Thr-FAM probe for WDR5. Total fluorescence is also measured, to rule out compounds that are inherently fluorescent or able to act as quenchers in the assay. TR-FRET Binding Assay

[1] = tested on: MV4:11 human cancer cell lines; experiment: Cellular viability / anti-proliferative assay, CellTiter-Glo, 5 day protocol; type: cell-based; settings: Homo sapiens, MV4-11, 120 h, MV4:11 cells; 5 day incubation; CellTiter-Glo; mean of at least two replicates; read-out: GI50 on cellular proliferation of MV4:11 human cancer cell lines
Procedure: Cellular Viability of Human Tumor Cell Lines
Anti-proliferative activity using MLL-harboring cell lines. MV-4-11 and K562 cells are grown in IMDM media supplemented with 10% FBS and 1% penicillin/streptomycin, Molm-13 cells are cultured in RPMI-1640 media supplemented with 10% FBS and 1% penicillin/streptomycin. Viability assays are performed by dispensing 200 cells at 7200 cells/mL into each well of an opaque 384-well plate and adding compounds at the indicated concentrations in a final volume, of 32 μL. and a final concentration of DMSO of 0.3% for all samples. A certain range of compound concentrations is made through a series of 2-fold dilutions starting 30 μM at the highest, total 22 dilutions. After a set incubation period, 5 day protocol, the viability of cells in each well is assessed using the CellTiter-Glo assay (Promega), read on a 96 Microplane Luminometer (Cytation 3, BioTek). Serial dilutions of each cell type are performed in all assays to generate standard curves and the final densities of cells are determined within the dynamic range of the instrument. GI50 values are calculated based on XLfit software (IDBS, Guildford, UK) with Sigmoidal Dose-Response Model. Each compound is tested in minimum of two replicates. Data are expressed as mean.

pKi (WDR5)	GI50 [1]	Compound
10.66	22 nM	CCc1ccc2cncc(N3CCc4c(cc(Cn5ccnc5)cc4-c4cn(C)nc4C(F)(F)F)C3=O)c2c1 [Example 89, 7-((1H-Imidazol-1-yl)methyl)-6′-ethyl-5-(1-methyl-3-(trifluoromethyl)-1H-pyrazol-4-yl)-3,4-dihydro-1H-[2,4′-biisoquinolin]-1-one]
> 10.70	< 20 nM	CCc1cc(COC2COC2)c2nccc(N3CCc4c(cc(Cn5ccnc5)cc4-c4cn(C)nc4C(F)(F)F)C3=O)c2c1 [Example 191, 7-((1H-Imidazol-1-yl)methyl)-2-(6-ethyl-8-((oxetan-3-yloxy)methyl)quinolin-4-yl)-5-(1-methyl-3-(trifluoromethyl)-1H-pyrazol-4-yl)-3,4-dihydroisoquinolin-1(2H)-one]
10.42	< 20 nM	COc1cc(CN2CCN(C3CCOCC3)CC2)c2nccc(N3CCc4c(cc(Cn5ccnc5)cc4-c4cn(C)nc4C(F)(F)F)C3=O)c2c1 [Example 143, 7-((1H-Imidazol-1-yl)methyl)-2-(6-methoxy-8-((4-(tetrahydro-2H-pyran-4-yl)piperazin-1-yl)methyl)quinolin-4-yl)-5-(1-methyl-3-(trifluoromethyl)-1H-pyrazol-4-yl)-3,4-dihydroisoquinolin-1(2H)-one]
> 10.70	< 20 nM	COc1cc(N2CCC(OC)CC2)c2nc(C)cc(N3CCc4c(cc(Cn5ccnc5)cc4-c4cn(C)nc4C(F)(F)F)C3=O)c2c1 [Example 195, 7-((1H-Imidazol-1-yl)methyl)-2-(6-methoxy-8-(4-methoxypiperidin-1-yl)-2-methylquinolin-4-yl)-5-(1-methyl-3-(trifluoromethyl)-1H-pyrazol-4-yl)-3,4-dihydroisoquinolin-1(2H)-one]
> 10.70	21 nM	CCc1cc(C(=O)NCC2CN(C(C)=O)C2)c2nccc(N3CCc4c(cc(Cn5ccnc5)cc4-c4cn(C)nc4C(F)(F)F)C3=O)c2c1 [Example 218, 4-(7-((1H-Imidazol-1-yl)methyl)-5-(1-methyl-3-(trifluoromethyl)-1H-pyrazol-4-yl)-1-oxo-3,4-dihydroisoquinolin-2(1H)-yl)-N-((1-acetylazetidin-3-yl)methyl)-6-ethylquinoline-8-carboxamide]
> 10.70	< 20 nM	CCc1cc(C(=O)NC2CCOCC2)c2nccc(N3CCc4c(cc(Cn5ccnc5)cc4-c4cn(C)nc4C(F)(F)F)C3=O)c2c1 [Example 171, 4-(7-((1H-Imidazol-1-yl)methyl)-5-(1-methyl-3-(trifluoromethyl)-1H-pyrazol-4-yl)-1-oxo-3,4-dihydroisoquinolin-2(1H)-yl)-6-ethyl-N-(tetrahydro-2H-pyran-4-yl)quinoline-8-carboxamide]
> 10.70	55 nM	COc1cc(C2=CCOCC2)c2nc(C)cc(N3CCc4c(cc(Cn5ccnc5)cc4-c4cn(C)nc4C(F)(F)F)C3=O)c2c1 [Example 151, 7-((1H-imidazol-1-yl)methyl)-2-(8-(3,6-dihydro-2H-pyran-4-yl)-6-methoxy-2-methylquinolin-4-yl)-5-(1-methyl-3-(trifluoromethyl)-1H-pyrazol-4-yl)-3,4-dihydroisoquinolin-1(2H)-one]
10.46	75 nM	CCc1cc(OC)cc2c(N3CCc4c(cc(Cn5ccnc5)cc4-c4cn(C)nc4C(F)(F)F)C3=O)ccnc12 [Example 149, 7-((1H-Imidazol-1-yl)methyl)-2-(8-ethyl-6-methoxyquinolin-4-yl)-5-(1-methyl-3-(trifluoromethyl)-1H-pyrazol-4-yl)-3,4-dihydroisoquinolin-1(2H)-one]
> 10.70	–	CCc1cc(NC(C)=O)c2nccc(N3CCc4c(cc(Cn5ccnc5)cc4-c4cn(C)nc4C(F)(F)F)C3=O)c2c1 [Example 231, N-(4-(7-((1H-Imidazol-1-yl)methyl)-5-(1-methyl-3-(trifluoromethyl)-1H-pyrazol-4-yl)-1-oxo-3,4-dihydroisoquinolin-2(1H)-yl)-6-ethylquinolin-8-yl)acetamide]

The next lines start with the compound.

Compound	pKi (WDR5)	GI50 [1]
COc1cc(OC)c2c(c1)c(N1CCc3c(cc(Cn4ccnc4)cc3-c3cn(C)nc3C(F)(F)F)C1=O)cn2C [Example 85, 7-((1H-Imidazol-1-yl)methyl)-2-(5,7-dimethoxy-1-methyl-1H-indol-3-yl)-5-(1-methyl-3-(trifluoromethyl)-1H-pyrazol-4-yl)-3,4-dihydroisoquinolin-1(2H)-one]	> 10.70	92 nM
CCn1cc(-c2cc(Cn3ccnc3C)cc3c2CCN(c2cn(C)c4ccc(OC)cc24)C3=O)c(C(F)(F)F)n1 [Example 86, 5-(1-Ethyl-3-(trifluoromethyl)-1H-pyrazol-4-yl)-2-(5-methoxy-1-methyl-1H-indol-3-yl)-7-((2-methyl-1H-imidazol-1-yl)methyl)-3,4-dihydroisoquinolin-1(2H)-one]	> 10.70	107 nM
Cc1ccc2cncc(N3CCc4c(cc(Cc5cnc[nH]5)cc4-c4cn(C)nc4C(F)(F)F)C3=O)c2c1 [Example 55, 7-((1H-imidazol-5-yl)methyl)-6′-methyl-5-(1-methyl-3-(trifluoromethyl)-1H-pyrazol-4-yl)-3,4-dihydro-1H-[2,4′-biisoquinolin]-1-one]	> 10.70	59 nM
COc1ccc2c(c1)C(N1CCc3c(cc(Cn4ccnc4)cc3-c3cn(C)nc3C(F)(F)F)C1=O)CCO2 (centres unmarked) [Example 67, 7-((1H-Imidazol-1-yl)methyl)-2-(6-methoxychroman-4-yl)-5-(1-methyl-3-(trifluoromethyl)-1H-pyrazol-4-yl)-3,4-dihydroisoquinolin-1(2H)-one]	10.21	35 nM
Cc1cc2c(N3CCc4c(cc(Cn5ccnc5)cc4-c4cn(C)nc4C(F)(F)F)C3=O)ccnc2n1C [Example 28, 7-((1H-Imidazol-1-yl)methyl)-2-(1,2-dimethyl-1H-pyrrolo[2,3-b]pyridin-4-yl)-5-(1-methyl-3-(trifluoromethyl)-1H-pyrazol-4-yl)-3,4-dihydroisoquinolin-1(2H)-one]	10.49	281 nM
CNC(=O)c1cc(OC)cc2c(N3CCc4c(cc(Cn5ccnc5)cc4-c4cn(C)nc4C(F)(F)F)C3=O)ccnc12 [Example 42, 4-(7-((1H-Imidazol-1-yl)methyl)-5-(1-methyl-3-(trifluoromethyl)-1H-pyrazol-4-yl)-1-oxo-3,4-dihydroisoquinolin-2(1H)-yl)-6-methoxy-N-methylquinoline-8-carboxamide]	> 10.70	20 nM
COCCNC(=O)c1cc(OC)cc2c(N3CCc4c(cc(Cn5ccnc5)cc4-c4cn(C)nc4C(F)(F)F)C3=O)ccnc12 [Example 49, 4-(7-((1H-Imidazol-1-yl)methyl)-5-(1-methyl-3-(trifluoromethyl)-1H-pyrazol-4-yl)-1-oxo-3,4-dihydroisoquinolin-2(1H)-yl)-6-methoxy-N-(2-methoxyethyl)quinoline-8-carboxamide]	> 10.70	34 nM
COc1ccc2c(c1)C(N1CCc3c(cc(Cn4ccnc4)cc3-c3cn(C)nc3C(F)(F)F)C1=O)CCC2 (centres unmarked) [Example 66, 7-((1H-Imidazol-1-yl)methyl)-2-(7-methoxy-1,2,3,4-tetrahydronaphthalen-1-yl)-5-(1-methyl-3-(trifluoromethyl)-1H-pyrazol-4-yl)-3,4-dihydroisoquinolin-1(2H)-one]	10.21	84 nM
Cc1nccn1Cc1cc2c(c(-c3cn(C)nc3C(F)(F)F)c1)CCN(C1CCCc3ncccc31)C2=O (centres unmarked) [Example 64, 7-((2-Methyl-1H-imidazol-1-yl)methyl)-5-(1-methyl-3-(trifluoromethyl)-1H-pyrazol-4-yl)-2-(5,6,7,8-tetrahydroquinolin-5-yl)-3,4-dihydroisoquinolin-1(2H)-one]	10.38	284 nM
